Assay results from ChEMBL document CHEMBL1124182, “Design, synthesis, and properties of (4S)-7-(4-amino-2-substituted-pyrrolidin-1-yl)quinolone-3-carboxylic acids” (J Med Chem, 1988).
≈ marks a conversion by molar mass, not a printed value.

What was measured:
[1] = Partition coefficient (logP); assay type: physicochemical; conditions: octanol/water
Acinetobacter = assay: In vitro Minimum inhibitory concentration against Acinetobacter CMX 669; assay type: functional; conditions: Acinetobacter; read-out: MIC
Escherichia coli [2] = assay: In vitro Minimum inhibitory concentration against Escherichia coli Juhl; assay type: functional
Escherichia coli [3] = assay: Supercoiling inhibition assay using purified DNA gyrase isolated from Escherichia coli H560; assay type: functional; conditions: read-out: I50
Klebsiella pneumoniae = assay: In vitro Minimum inhibitory concentration against Klebsiella pneumoniae 8045; assay type: functional
Mus musculus [4] = assay: Blood level was evaluated by a disk agar diffusion assay at 3.0 hh when administered at a peroral dose of 25 mg/kg; assay type: functional; conditions: route oral
Mus musculus [5] = assay: Blood level was evaluated by a disk agar diffusion assay at 6.0 hr when administered at a peroral dose of 25 mg/kg; assay type: functional; conditions: route oral
Mus musculus [6] = assay: Blood level was evaluated by a disk agar diffusion assay at 2.0 hr when administered at a peroral dose of 25 mg/kg; assay type: functional; conditions: route oral
Mus musculus [7] = assay: Blood level was evaluated by a disk agar diffusion assay at 0.5 hr when administered at a peroral dose of 25 mg/kg; assay type: functional; conditions: route oral
Mus musculus [8] = assay: Blood level was evaluated by a disk agar diffusion assay at 1.0 hr when administered at a peroral dose of 25 mg/kg; assay type: functional; conditions: route oral
Mus musculus [9] = assay: Blood level was evaluated by a disk agar diffusion assay at 24.0 hr when administered at a peroral dose of 25 mg/kg; assay type: functional; conditions: route oral
Pseudomonas aeruginosa [10] = assay: In vitro Minimum inhibitory concentration against Pseudomonas aeruginosa 5007; assay type: functional
Pseudomonas aeruginosa [11] = assay: In vitro Minimum inhibitory concentration against Pseudomonas aeruginosa K799/WT; assay type: functional
[12] = tested on: Staphylococcus epidermidis; assay: In vitro Minimum inhibitory concentration against Staphylococcus epidermidis 3519; assay type: functional
Streptococcus agalactiae = assay: In vitro Minimum inhibitory concentration against Streptococcus agalactiae CMX 508; assay type: functional
Staphylococcus aureus [13] = assay: In vitro Minimum inhibitory concentration against Staphylococcus aureus 45; assay type: functional
Staphylococcus aureus [14] = assay: In vitro Minimum inhibitory concentration against Staphylococcus aureus A5177; assay type: functional
Staphylococcus aureus [15] = assay: In vitro Minimum inhibitory concentration against Staphylococcus aureus ATCC 6538P; assay type: functional
Streptococcus equinus = assay: In vitro Minimum inhibitory concentration against Streptococcus bovis A5169; assay type: functional
Enterococcus faecium = assay: In vitro Minimum inhibitory concentration against Streptococcus faecium ATCC 8043; assay type: functional
Streptococcus pyogenes = assay: In vitro Minimum inhibitory concentration against Streptococcus pyogenes 930; assay type: functional
[16] = Compound was evaluated for the solubility in Ringer's buffer solution; assay type: ADME
Staphylococcus aureus [17] = assay: In vitro Minimum inhibitory concentration against Staphylococcus aureus CMX 686B; assay type: functional
Mus musculus [18] = assay: In vivo efficacy against Escherichia coli Juhl, in mouse protection tests when administered perorally (po); assay type: functional
Mus musculus [19] = assay: In vivo efficacy against Escherichia coli Juhl, in mouse protection tests when administered subcutaneously (sc); assay type: functional
Mus musculus [20] = assay: In vivo efficacy against Staphylococcus aureus 10649, in mouse protection tests when administered perorally (po); assay type: functional
Mus musculus [21] = assay: In vivo efficacy against Staphylococcus aureus 10649, in mouse protection tests when administered subcutaneously (sc); assay type: functional
[22] = Blood level was evaluated by a disk agar diffusion assay at 3.0 hh when administered at a peroral dose of 100 mg/kg; assay type: ADME, organism-based; design: dose 100 mg/kg, route oral; conditions: mouse, po, read-out: Blood level
[23] = Ringer's buffer solution, read-out: Solubility

SMILES	logP [1]	MIC (Acinetobacter) [µg/mL]	MIC (Escherichia coli [2]) [µg/mL]	IC50 (Escherichia coli [3]) [µg/mL]	MIC (Klebsiella pneumoniae) [µg/mL]	MIC (Pseudomonas aeruginosa [10]) [µg/mL]	MIC (Pseudomonas aeruginosa [11]) [µg/mL]	MIC [12] [µg/mL]	MIC (Streptococcus agalactiae) [µg/mL]	MIC (Staphylococcus aureus [13]) [µg/mL]	MIC (Staphylococcus aureus [14]) [µg/mL]	MIC (Staphylococcus aureus [15]) [µg/mL]	MIC (Streptococcus equinus) [µg/mL]	MIC (Enterococcus faecium) [µg/mL]	MIC (Streptococcus pyogenes) [µg/mL]	solubility [16, 23] [µg/mL]	MIC (Staphylococcus aureus [17]) [µg/mL]	also measured
C[C@@H]1C[C@H](N)CN1c1nc2c(cc1F)c(=O)c(C(=O)O)cn2-c1ccc(F)cc1F	-0.11	0.78 (≈ 1.86 µM)	0.39 (≈ 0.932 µM)	7.5 (≈ 17.9 µM)	0.39 (≈ 0.932 µM)	12.5 (≈ 29.9 µM)	3.1 (≈ 7.41 µM)	0.39 (≈ 0.932 µM)	6.2 (≈ 14.8 µM)	0.39 (≈ 0.932 µM)	0.39 (≈ 0.932 µM)	0.2 (≈ 0.478 µM)	6.2 (≈ 14.8 µM)	3.1 (≈ 7.41 µM)	1.56 (≈ 3.73 µM)	340 (≈ 813 µM)	0.2 (≈ 0.478 µM)	Blood level (Mus musculus [4]): 2.2 µg/mL; Blood level (Mus musculus [5]): 1.1 µg/mL; Blood level (Mus musculus [6]): 3.7 µg/mL; Blood level (Mus musculus [7]): 5.3 µg/mL; Blood level (Mus musculus [8]): 12.4 µg/mL; Blood level (Mus musculus [9]): 0 µg/mL
NC1CCN(c2cc3c(cc2F)c(=O)c(C(=O)O)cn3-c2ccc(F)cc2)C1 (stereo not given)	–	–	–	–	–	–	–	–	–	–	–	–	–	–	–	–	–	ED50 (Mus musculus [18]): 5.8 mg/kg; ED50 (Mus musculus [19]): 1 mg/kg; ED50 (Mus musculus [20]): 6.2 mg/kg; ED50 (Mus musculus [21]): 0.8 mg/kg
N[C@H]1C[C@@H](CO)N(c2cc3c(cc2F)c(=O)c(C(=O)O)cn3-c2ccc(F)cc2F)C1	–	25 (≈ 57.7 µM)	3.1 (≈ 7.15 µM)	10 (≈ 23.1 µM)	3.1 (≈ 7.15 µM)	12.5 (≈ 28.8 µM)	12.5 (≈ 28.8 µM)	12.5 (≈ 28.8 µM)	12.5 (≈ 28.8 µM)	12.5 (≈ 28.8 µM)	6.2 (≈ 14.3 µM)	1.56 (≈ 3.6 µM)	50 (≈ 115 µM)	25 (≈ 57.7 µM)	25 (≈ 57.7 µM)	60 (≈ 138 µM)	6.2 (≈ 14.3 µM)	–
O=C(O)c1cn(-c2ccc(F)cc2)c2cc(N3CCC[C@@H]3CO)c(F)cc2c1=O	–	0.78 (≈ 1.95 µM)	0.78 (≈ 1.95 µM)	–	0.78 (≈ 1.95 µM)	3.1 (≈ 7.74 µM)	3.1 (≈ 7.74 µM)	0.39 (≈ 0.974 µM)	3.1 (≈ 7.74 µM)	0.39 (≈ 0.974 µM)	0.39 (≈ 0.974 µM)	0.1 (≈ 0.25 µM)	25 (≈ 62.4 µM)	3.1 (≈ 7.74 µM)	3.1 (≈ 7.74 µM)	–	0.1 (≈ 0.25 µM)	–
C[C@@H]1C[C@H](N)CN1c1cc2c(cc1F)c(=O)c(C(=O)O)cn2-c1ccc(F)cc1F	0.03	3.1 (≈ 7.43 µM)	0.78 (≈ 1.87 µM)	18 (≈ 43.1 µM)	0.78 (≈ 1.87 µM)	5 (≈ 12 µM)	6.2 (≈ 14.9 µM)	0.78 (≈ 1.87 µM)	6.2 (≈ 14.9 µM)	0.78 (≈ 1.87 µM)	0.78 (≈ 1.87 µM)	0.39 (≈ 0.934 µM)	6.2 (≈ 14.9 µM)	3.1 (≈ 7.43 µM)	1.56 (≈ 3.74 µM)	182 (≈ 436 µM)	0.39 (≈ 0.934 µM)	–
NC1CCN(c2nc3c(cc2F)c(=O)c(C(=O)O)cn3-c2ccc(F)cc2F)C1 (stereo not given) [TOSUFLOXACIN]	-0.46	0.05 (≈ 0.124 µM)	0.02 (≈ 0.0495 µM)	0.4 (≈ 0.989 µM)	0.01 (≈ 0.0247 µM)	0.78 (≈ 1.93 µM)	0.39 (≈ 0.965 µM)	0.1 (≈ 0.247 µM)	0.2 (≈ 0.495 µM)	0.05 (≈ 0.124 µM)	0.05 (≈ 0.124 µM)	0.02 (≈ 0.0495 µM)	0.78 (≈ 1.93 µM)	0.2 (≈ 0.495 µM)	0.1 (≈ 0.247 µM)	–	0.05 (≈ 0.124 µM)	concentration at 3 h [22]: 1700 ng/mL; solubility ([16]; buffer): 8 µg/mL (≈ 19.8 µM)
O=C(O)c1cn(-c2ccc(F)cc2F)c2nc(N3C[C@@H]4C[C@H]3CN4)c(F)cc2c1=O	–	0.39 (≈ 0.937 µM)	0.05 (≈ 0.12 µM)	–	0.05 (≈ 0.12 µM)	0.39 (≈ 0.937 µM)	0.39 (≈ 0.937 µM)	0.39 (≈ 0.937 µM)	0.78 (≈ 1.87 µM)	0.78 (≈ 1.87 µM)	0.39 (≈ 0.937 µM)	0.1 (≈ 0.24 µM)	1.56 (≈ 3.75 µM)	0.39 (≈ 0.937 µM)	0.78 (≈ 1.87 µM)	–	0.2 (≈ 0.48 µM)	–
COCC1C[C@H](N)CN1c1nc2c(cc1F)c(=O)c(C(=O)O)cn2-c1ccc(F)cc1F (stereo not given in full)	–	0.78 (≈ 1.74 µM)	0.2 (≈ 0.446 µM)	–	0.1 (≈ 0.223 µM)	1.56 (≈ 3.48 µM)	1.56 (≈ 3.48 µM)	0.39 (≈ 0.87 µM)	0.78 (≈ 1.74 µM)	0.39 (≈ 0.87 µM)	0.2 (≈ 0.446 µM)	0.1 (≈ 0.223 µM)	1.56 (≈ 3.48 µM)	0.78 (≈ 1.74 µM)	0.78 (≈ 1.74 µM)	–	0.1 (≈ 0.223 µM)	–
